According to patent US5736565A, “Therapeutic compounds suitable for the treatment of diseases connected with glutathione deficiency, process for their preparation, and pharmaceutical compositions containing same” (Prospa B.V., priority 1992, dated 1998):
Like-named read-outs stand apart in the source and are kept apart here. Peptide text beside a SMILES is read from it.

Legend:
[1] = tested on: peripheral lymphocytes; test: Blastization with phytohaemagglutinin (PHA) of peripheral lymphocytes of PSC-treated rats; format: in vivo, Sprague-Dawley rats; settings: 600 mg/kg i.p. 15 days + PHA
Method: (§1) Sprague-Dawley rats (Charles River, Calco (CO)), aged 10 weeks (young adults) and 24 months (old), were stabled under standard conditions (24°±1° C., 12 h light/dark cycle, free access to food and water). Handlings were made in such a way as to avoid stressful stimuli.
(§2) The animals were stabled in groups of 6 per cage and treated for 2 weeks (15 days) with a PSC daily dose of 600 mg/kg by intraperitoneal route (i.p.).
Once the treatment with PSC previously described in the paragraph "Animals" was completed, the animals, both young and old, were sacrificed by decapitation and the blood collected in heparin-treated tubes. The blood samples were stratified on Ficoll-Paque gradient and centrifuged at 2500 rpm for 15 min. The lymphocytic cellular fraction was taken by suction and washed three times with a Lphysiological solution (0.9% NaCl). At the end of the treatment, the cells were resuspended in culture medium RPMI 1640 containing 10% FBS, counted (1×10^5 cells/0.1 ml/well) and incubated for 48 hrs at 37° C., in a 5% carbon dioxide environment. At the incubation end, mitogens concavaline A (ConA) and phytohaemagglutinin (PHA) were added to the cultures at a concentration of 1 μg/ml in a volume of 0.1 ml. Eighteen hours later, tritiated thymidine (0.01 ml) was added to the cultures, subsequently incubated for 3 hrs. […] Radioactivity (dpm) was measured 2 min. using a β-counter. […]

[2] = tested on: Lewis lung carcinoma cells; test: Transplantable neoplasms: metastases development in BALB/c mice; format: in vivo
Method: Male adult BALB/c mice weighing 20 g were stabled under standard conditions (24°±1° C., 12 h light/dark cycle, free access to food and water). Handlings were made in such a way as to avoid stressful stimuli.
All animals, subdivided into groups of 6, were treated 4 weeks with a PSC dose (600 mg/kg). […] Treatment was continued two weeks after tumour inoculation. The mice were sacrificed and the tumoral mass growth and the development of metastases, if any, were evaluated.

[3] = tested on: hepatocytes; test: Tests in vitro: vitality of isolated rat hepatocytes; format: cell-based; settings: for viability at 250 µM / viability at 500 µM / viability at 1000 µM / viability at 2500 µM / viability at 5000 µM: Rattus norvegicus, Hepatocyte, read-out: Cells vitality; for viability at 1000 µM: DEM + 1.0 mM; for viability at 5000 µM: DEM + 5.0 mM
Method: The experimental model envisages the isolation of hepatic parenchymal cells of rats following perfusion, with collagenase, of the isolated organ. Prior to each test, hepatocytes vitality was quantified by Tripan Blue […]. Only the cells with a vitality greater than 90% were utilized. Hepatocytes were resuspended, at a concentration of 10^6 cells/ml, in a saline medium (Krebs Heinseleit) at ph 7.4, and then placed into rotating flasks in the presence of O2 (95%) and CO2 (5%), at 37° C. Cells keep vital for 5-6 hours at least.
[…] The cells were then washed for 30 min. and incubated with various concentrations of the test substance (from 0.25 to 5 mM).
By this experimental model it is possible to test the effect of the substance by evaluating the hepatic functionality determined by measurements of the vitality (Tables Nos. 3, 4, and 5) and of glutathione content (Tables 6, 7, and 8).
In the Tables 3-8 herein below reported, the controls are represented by normal hepatocytes, not treated either with DEM or with compound (I).

[4] = Behaviour and death rate of the test groups under PSC treatment; settings: in vivo
[5] = tested on: serum antibodies versus ram erythrocytes; test: Immunization tests versus ram erythrocytes in rat immunodepressed by cyclophosphamide (CTX); format: in vivo, Sprague-Dawley rats; settings: for serum antibodies level (agglutination, Days from immunization): 600 mg/kg i.p. + CTX
Method: as §1, §2
Immunization tests versus ram erythrocytes in Sprague-Dawley rat immunodepressed by cyclophosphamide (CTX)
0.3 Milliliters of ram erythrocytes (3%) in 0.9% sodium chloride solution were injected to Sprague-Dawley rats, both young (aged 10 weeks, weighing 150-200 g) and old (aged 24 months). A second injection was made on the 21st day after the first one. The rats were treated with PSC (600 mg/kg i.p.). Treatment started 3 days before immunization and continued until the 40th day of experiment. Cyclophosphamide (CTX) (150 mg/kg/die) was injected i.p. on the 3rd, 4th, and 5th day after immunization with erythrocytes.
The animals were subdivided (6 animals each group) into the following experimental groups:
1) Non-immunized controls (CTRL);
2) Immunized controls (CTRL);
4) Immunized +CTX+PSC (600 mg/kg i.p.).
The determination of serum antibodies levels was carried out by agglutination reaction: the serum in 0.9% sodium chloride solution was diluted from 1:2 to 1:1024 and ram erythrocytes at a concentration of 5×10^8 /ml were added. The determination of antibodies was carried out 2 hrs after incubation at 37° C. Each sample was assayed twice (Tables 11 and 12).

[6] = 600 mg/kg i.p., 30 days' treatment, 15 days after inoculation

CC(=O)SC[C@H](NC(=O)[C@@H]1CCC(=O)N1)C(=O)O [PSC, 2-(S)-(2-pyrrolidone-5-(S)-carbonyl amido)-3-acetylmercapto propionic acid] (HELM PEPTIDE1{[Glp].C}|PEPTIDE2{[ac]}$PEPTIDE1,PEPTIDE2,2:R3-1:R2$$$V2.0)
blastization (tritiated thymidine incorporation), Young [1]: 703 ± 44 DPM × 100
blastization (tritiated thymidine incorporation), Elderly ([1]; *P < 0.05): 533 ± 29 DPM × 100
Mice with metastases, % [2, 6]: 33%
Mice with metastases/group [2, 6]: 2/6
metastatic process (in words) ([2]; mouse, in vivo): slows down the metastatic process
viability at 250 µM ([3]; 0 h, DEM + 0.25 mM, 0 time (Table 4)): 95%
viability at 500 µM ([3]; 0 h, DEM + 0.50 mM, 0 time (Table 4)): 95%
viability at 1000 µM ([3]; 0 h, 0 time (Table 5)): 96%
viability at 2500 µM ([3]; 0 h, DEM + 2.5 mM, 0 time (Table 5)): 96%
viability at 5000 µM ([3]; 0 h, 0 time (Table 5)): 96%
viability at 250 µM ([3]; 0 h, no DEM, 0.25 mM, 0 time): 100%
viability at 500 µM ([3]; 0 h, no DEM, 0.50 mM, 0 time): 100%
viability at 2500 µM ([3]; 0 h, no DEM, 2.5 mM, 0 time): 100%
viability at 250 µM ([3]; 0.5 h, DEM + 0.25 mM, 30 min (Table 4)): 90%
viability at 500 µM ([3]; 0.5 h, DEM + 0.50 mM, 30 min (Table 4)): 88%
viability at 1000 µM ([3]; 0.5 h, 30 min (Table 5)): 92%
viability at 2500 µM ([3]; 0.5 h, DEM + 2.5 mM, 30 min (Table 5)): 89%
viability at 5000 µM ([3]; 0.5 h, 30 min (Table 5)): 88%
viability at 250 µM ([3]; 0.5 h, no DEM, 0.25 mM, 30 min): 101%
viability at 500 µM ([3]; 0.5 h, no DEM, 0.50 mM, 30 min): 101%
viability at 2500 µM ([3]; 0.5 h, no DEM, 2.5 mM, 30 min): 94%
viability at 250 µM ([3]; 1 h, DEM + 0.25 mM, 1 hr (Table 4)): 87%
viability at 500 µM ([3]; 1 h, DEM + 0.50 mM, 1 hr (Table 4)): 85%
viability at 1000 µM ([3]; 1 h, 1 hr (Table 5)): 90%
viability at 2500 µM ([3]; 1 h, DEM + 2.5 mM, 1 hr (Table 5)): 84%
viability at 5000 µM ([3]; 1 h, 1 hr (Table 5)): 84%
viability at 250 µM ([3]; 1 h, no DEM, 0.25 mM, 1 hr): 98%
viability at 500 µM ([3]; 1 h, no DEM, 0.50 mM, 1 hr): 100%
viability at 2500 µM ([3]; 1 h, no DEM, 2.5 mM, 1 hr): 95%
viability at 250 µM ([3]; 2 h, DEM + 0.25 mM, 2 hrs (Table 4)): 86%
viability at 500 µM ([3]; 2 h, DEM + 0.50 mM, 2 hrs (Table 4)): 84%
viability at 1000 µM ([3]; 2 h, 2 hrs (Table 5)): 89%
viability at 2500 µM ([3]; 2 h, DEM + 2.5 mM, 2 hrs (Table 5)): 83.5%
viability at 5000 µM ([3]; 2 h, 2 hrs (Table 5)): 82%
viability at 250 µM ([3]; 2 h, no DEM, 0.25 mM, 2 hrs): 100%
viability at 500 µM ([3]; 2 h, no DEM, 0.50 mM, 2 hrs): 101%
viability at 2500 µM ([3]; 2 h, no DEM, 2.5 mM, 2 hrs): 95%
viability at 250 µM ([3]; 4 h, DEM + 0.25 mM, 4 hrs (Table 4)): 87%
viability at 500 µM ([3]; 4 h, DEM + 0.50 mM, 4 hrs (Table 4)): 85%
viability at 1000 µM ([3]; 4 h, 4 hrs (Table 5)): 88%
viability at 2500 µM ([3]; 4 h, DEM + 2.5 mM, 4 hrs (Table 5)): 82%
viability at 5000 µM ([3]; 4 h, 4 hrs (Table 5)): 80%
viability at 250 µM ([3]; 4 h, no DEM, 0.25 mM, 4 hrs): 116%
viability at 500 µM ([3]; 4 h, no DEM, 0.50 mM, 4 hrs): 114%
viability at 2500 µM ([3]; 4 h, no DEM, 2.5 mM, 4 hrs): 104%
cellular suffering (in words) ([3]; hepatocytes treated with DEM then test substance): a cellular suffering (cellular dilatation without appearance of vesicles) was at first detected, which disappeared after few tens of minutes
cellular toxicity (in words) ([3]; in vitro, up to 5 mM): does not cause cellular toxicity and, at least in vitro, is very well tolerated
behaviour and death rate of the test groups (in words) [4]: did not significantly affect the behaviour and death rate of the various test groups
death in tested groups (in words) [4]: no death occurred in all tested groups
restoring immunological functionality (in words) ([5]; CTX-immunodepressed old rat): effective in restoring a correct immunological functionality
antibodies levels (in words) ([5]; intraperitoneal, young and old rats): causes a considerable increase in antibodies levels both in young (Table 11) and old (Table 12) rats
serum antibodies level (agglutination, Days from immunization) ([5]; old rats, day 12): 2
serum antibodies level (agglutination, Days from immunization) ([5]; old rats, day 20): 8
serum antibodies level (agglutination, Days from immunization) ([5]; old rats, day 29): 32
serum antibodies level (agglutination, Days from immunization) ([5]; old rats, day 40): 64
serum antibodies level (agglutination, Days from immunization) ([5]; young rats, day 12): 2
serum antibodies level (agglutination, Days from immunization) ([5]; young rats, day 20): 4
serum antibodies level (agglutination, Days from immunization) ([5]; young rats, day 29): 20
serum antibodies level (agglutination, Days from immunization) ([5]; young rats, day 40): 20
